Laboratory results taken from publication PMC2719696, “Kinetics and Cellular Site of Glycolipid Loading Control the Outcome of Natural Killer T Cell Activation” (Immunity, 2009).

molecular target: T1, mCD1d (Mus musculus, UniProt P11609); test: mAb L363 surface staining of JAWS II cells by flow cytometry (kinetics and pulse-chase); type: cell-based; conditions: JAWS II cells pulsed 500 nM for 1.5 hr, 8 hr chase
T1 construct: host or cells: JAWS II (C57BL/6.Trp53-/- derived dendritic cell line)
T1 sequence (P11609 22-336): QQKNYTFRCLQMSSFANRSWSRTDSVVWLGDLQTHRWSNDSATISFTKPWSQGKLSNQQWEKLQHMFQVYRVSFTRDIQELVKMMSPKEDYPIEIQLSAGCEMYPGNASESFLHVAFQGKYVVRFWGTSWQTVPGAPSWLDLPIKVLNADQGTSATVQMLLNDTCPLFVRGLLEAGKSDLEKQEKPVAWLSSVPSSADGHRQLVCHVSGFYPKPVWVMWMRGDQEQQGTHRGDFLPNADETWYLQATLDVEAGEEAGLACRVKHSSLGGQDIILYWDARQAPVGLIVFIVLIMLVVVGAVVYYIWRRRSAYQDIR
T1 sequence (P01887 21-119 partner): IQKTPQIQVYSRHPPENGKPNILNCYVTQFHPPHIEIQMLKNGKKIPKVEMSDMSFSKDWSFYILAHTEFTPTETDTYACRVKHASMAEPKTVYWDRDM
Description: We studied this possibility directly by using a monoclonal antibody (L363) that specifically recognizes complexes of αGalCer bound to mCD1d ([Yu et al., 2007]). Mouse splenocytes were cultured with either αGalCer-C26:0 or representative Th2 cell-type cytokine-biasing analogs, and L363 staining was assessed on various cell types (Figure 3A). […] This was investigated further with more detailed kinetic studies in which immortalized mouse DC line JAWS II was cultured with each glycolipid and assessed for L363 surface staining at 0.5, 4, and 18 hr (Figure 3B). There was a striking correlation between rapid kinetics of glycolipid association with mCD1d and the ability to induce a Th2 cell-type cytokine response. […] In contrast, most analogs inducing Th2 cell-type cytokine responses gave strong L363 staining by 0.5 hr, which increased modestly or not at all with longer incubation. […] Experiments using responses of iNKT cells to analyze the kinetics of cell-surface appearance gave analogous results (Figure S5).
Figure 3 Direct Analysis of Presentation of αGalCer Analogs with Complex-Specific mAb Staining (A) Mouse splenocytes cultured with either vehicle only (0.02% DMSO) or with the indicated αGalCer analogs (100 nM) were harvested after 1 hr or 19 hr of incubation and stained with mAb L363 or anti-CD1d mAb 1B1 and with mAbs specific for CD11c, CD19, and F4/80 (Figure S4). Filled histograms show L363 staining of cells cultured with vehicle only, and open histograms show cells cultured with indicated glycolipids. At the left, the total CD1d staining with mAb 1B1 (open histograms) compared to isotype control mAb (filled histograms) are shown on cells cultured for 19 hr with DMSO only. (B) JAWS II cells were incubated with glycolipids (250 nM) for various times ranging from 0.5–18 hr as indicated, stained with mAb L363, and analyzed by flow cytometry. Dashed line histograms show L363 staining of cells incubated with medium only, and bold histograms show L363 staining of cells incubated with αGalCer analogs. (C) JAWS II cells were pulsed with indicated αGalCer analogs (500 nM) for 1.5 hr, washed extensively, and recultured at 37°C for various chase times. Upon harvesting, cells were placed on ice and subsequently stained with mAb L363 for flow cytometry analysis. Histogram overlays show L363 staining of cells pulsed initially with vehicle only (DMSO, dashed histograms) or with αGalCer analog (bold histograms). […] All results shown (A, B, and C) were representative of at least two independent experiments.
Recombinant CD1d proteins were produced and assembled into tetramers for staining as previously described ([Forestier et al., 2007]). To obtain optimally loaded tetramers for iNKT cell staining, we loaded mCD1d with αGalCer-C26:0 and -C24:0 in the presence of 0.05% Triton X-100 (Sigma-Aldrich) and loaded mCD1d with other glycolipids without Triton X-100. For loading of hCD1d, 0.05% Triton X-100 was included with αGalCer-C26:0, -C24:0, and -C20:4, whereas other glycolipids were loaded without Triton X-100. For surface staining of αGalCer/mCD1d complexes, murine splenocytes or JAWS II cells were incubated with 250 nM glycolipids for various times and then 0.2 μg/ml mAb L363 (Alexa Fluor 647 or biotin conjugated) was added directly to the culture for an additional 30 min at RT. In some experiments, additional fluorochrome-conjugated antibodies specific for leukocyte subpopulations were added for the last 15 min of incubation. All samples were analyzed with the FACSCalibur flow cytometer (BD Biosciences).

Row | SMILES | formation of mCD1d-αGalCer surface complexes in pulse-chase analysis
1 | CCCCCC=CCC=CCCCCCCCCCC(=O)NC(COC1OC(CO)C(O)C(O)C1O)C(O)C(O)CCCCCCCCCCCCCC (stereo not drawn) [αGalCer-C20:2] | the complexes formed rapidly and began declining immediately during the chase period
2 | CCCCCCCCCCCCCCC(O)C(O)C(COC1OC(CO)C(O)C(O)C1O)NC(=O)CCCCCCCCC (stereo not drawn) [αGalCer-C10:0] | the complexes formed rapidly and began declining immediately during the chase period
3 | CCCCCCCCCCCCCCCCCCCCCCCCCC(=O)NC(COC1OC(CO)C(O)C(O)C1O)C(O)C(O)CCCCCCCCCCCCCC (stereo not drawn) [αGalCer-C26:0, reference compound] | formed slowly

same assay, conditions: JAWS II cells, 250 nM glycolipid, 0.5, 4 and 18 hr

Row | SMILES | L363 surface staining over time
4 | CCCCCCCCCCCCCCCCCCCCCCCC(=O)NC(COC1OC(CO)C(O)C(O)C1O)C(O)C(O)CCCCCCCCCCCCCC (stereo not drawn) [αGalCer-C24:0] | strong L363 staining was detected only at 18 hr
5 | CCCCCCCCCCCCCCCCCCCCCCCC(=O)NC(COC1OC(CO)C(O)C(O)C1O)C(O)C(O)CCCCC (stereo not drawn) [OCH] | very weak L363 reactivity
6 | CCCCCCCCCCCCCCCCCCCCCCCCCC(=O)NC(COC1OC(CO)C(O)C(O)C1O)C(O)C(O)CCCCCCCCCCCCCC (stereo not drawn) [αGalCer-C26:0, reference compound] | strong L363 staining was detected only at 18 hr
